In patent US20220295713A1, “PLANT ACTIVATOR AND A METHOD OF MANUFACTURING THE SAME” (IBIDEN CO., LTD., priority 2016, published 2022):

How the values were obtained:
[1] = system: bacterial soft rot causing bacteria (Erwinia carotovora subsp. Carotovora); assay: Bacterial soft rot in Arabidopsis thaliana after root treatment by watering; assay type: in vivo; conditions: comparative agents used instead of the plant activator, roots treated by watering, inoculated 24 hours after treatment
Description: The roots of Arabidopsis thaliana grown in the soil were treated by applying the 10 times, 100 times or 500 times diluted solution of the plant activator for test using the watering. 24 hours after the treatment, bacterial soft rot causing bacteria (Erwinia carotovora subsp. Carotovora) was inoculated on the leaves and stems above the ground. The plants were then grown at 23±2° C. in a high humidity environment for 3 days, and the disease symptoms at the pathogenic bacteria inoculated part had been evaluated up to one week after. The disease prevention effect was determined according to the following criteria.
⊚: the ratio of the area of leaves with no disease symptoms out of total area is 1.60 times or greater than the ratio observed in untreated leaves. ∘: the ratio of the area of leaves with no disease symptoms out of total area is 1.40 to 1.59 times than the ratio observed in untreated leaves. Δ: the ratio of the area of leaves with no disease symptoms out of total area is 1.20 to 1.39 times than the ratio observed in untreated leaves. X: the ratio of the area of leaves with no disease symptoms out of total area is 1.20 times less than the ratio observed in untreated leaves.
The roots of Arabidopsis thaliana were treated similar to Example 2 except that the water, peroxylipid, probenazole, isotianil, acibenzolar-S-methyl (ASM), 3′-chloro-4,4′-dimethyl-1,2,3-thiadiazole-5-carboxianilide (tiadinil), ketol fatty acid solution 1, or ketol fatty acid solution 2 was used instead of the plant activator for test.

[2] = system: tomatoes (cultivar "Momotaro"); assay: Phytotoxic damage in tomatoes grown in pot; assay type: in vivo; conditions: 10 mL undiluted solution by watering, 7 days
Description: (§1) The leaves and stems of tomatoes (cultivar “Momotaro”) grown in the pot for 3 weeks were treated by applying 10 mL of undiluted solution of the plant activator for test using the watering. The soil (about 100 g) in the pot was moistened thoroughly before the watering. The bacterial wilt disease bacteria were inoculated on the leaves and roots of tomatoes 1 hour and 24 hours after the watering. The plants were then grown at 30° C. in a high humidity environment for 7 days, and the incidences of the bacterial wilt disease and phytotoxic damage were evaluated.
(§2) The leaves and stems of tomatoes were treated similar to Example 5 except that the water and the fatty acid (linoleic acid) were used instead of the plant activator for test.

[3] = system: jasmonate mediated signaling pathway; assay: Real-time PCR gene expression in tomatoes, jasmonate mediated signaling pathway; assay type: in vivo, tomatoes (cultivar "Momotaro"); conditions: index, untreated tomatoes = 1
Description: (§3) Further, the cDNA was synthesized from total RNA isolated from each tomato 24 hours and 72 hours after the inoculation, and the expression level of individual genes specific to the salicylic acid mediated signaling pathway and the jasmonate mediated signaling pathway was analyzed by real-time PCR. In this example, the amount of the gene expression is represented by an index, which is a calculated ratio given that the amount of gene expression in untreated tomatoes is 1.

[4] = system: salicylic acid mediated signaling pathway; assay: Real-time PCR gene expression in tomatoes, salicylic acid mediated signaling pathway; assay type: in vivo, tomatoes (cultivar "Momotaro"); conditions: index, untreated tomatoes = 1
Description: as §3

[5] = system: bacterial wilt disease bacteria; assay: Bacterial wilt disease in tomatoes grown in pot; assay type: in vivo, tomatoes (cultivar "Momotaro"); conditions: 10 mL undiluted solution by watering, grown 7 days at 30° C. after inoculation
Description: as §1, §2

[6] = system: Tomato (cultivar "Reika"); assay type: in vivo; conditions: farm field, plant activator 50 times diluted, applied once every week
Description: (§4) Tomato (cultivar “Reika”) seedlings were planted with space of 60 cm between plants in the farm field where an outburst of bacterial wilt disease was observed, and the solution of the plant activator for test, which was 50 times diluted with water, was applied either by spraying (20 mL/plant) or watering it to soil (200 mL plant) once every week. The incidences of the bacterial wilt disease and phytotoxic damage were evaluated once every week for 4 weeks.
(§5) The leaves and stems of tomatoes were treated similar to Example 6 except that the Validamycin or no agent was used instead of the plant activator for test.

[7] = system: bacterial wilt disease; assay: Bacterial wilt disease in tomatoes growing in farm field; assay type: in vivo, Tomato (cultivar "Reika"); conditions: plant activator 50 times diluted, applied once every week
Description: as §4, §5

[8] = system: black point disease; assay: Naturally occurring black point disease in miniature roses in a planter; assay type: in vivo, miniature roses (cultivar Rouge); conditions: plant activator 100 times diluted or 0.02% mepanipyrim, sprayed once every week
Description: (§6) The solution of the plant activator for test, which was 100 times diluted with water, was applied to the leaves and stems of miniature roses (cultivar Rouge) planted in an outdoor planter right after the planting and once every week by spraying (about 50 mL/plant), and the naturally occurring damages due to disease (powdery mildew and black point disease) were evaluated on first week and fourth week.
(§7) The leaves and stems of miniature roses were treated similar to Example 7 except that 0.02% mepanipyrim or no agent was used instead of the plant activator for test.

[9] = system: powdery mildew; assay: Naturally occurring powdery mildew in miniature roses in a planter; assay type: in vivo, miniature roses (cultivar Rouge); conditions: plant activator 100 times diluted or 0.02% mepanipyrim, sprayed once every week
Description: as §6, §7

Cc1ccc(NC(=O)c2snnc2C)cc1Cl [tiadinil, 3′-chloro-4,4′-dimethyl-1,2,3-thiadiazole-5-carboxianilide]
disease prevention [1]: X (the ratio of the area of leaves with no disease symptoms out of total area is 1.20 times less than the ratio observed in untreated leaves.)

CCCCC/C=C\C/C=C\CCCCCCCC(=O)O [fatty acid, linoleic acid]
incidences of phytotoxic damage [2]: 0% | amount of gene expression jasmonate mediated signaling pathway 24 hours ([3]; 24 hours after inoculation): 0.5 | amount of gene expression jasmonate mediated signaling pathway 72 hours ([3]; 72 hours after inoculation): 1 | amount of gene expression salicylic acid mediated signaling pathway 24 hours ([4]; 24 hours after inoculation): 0 | amount of gene expression salicylic acid mediated signaling pathway 72 hours ([4]; 72 hours after inoculation): 0 | incidences of disease [5]: 100%

N#Cc1ccccc1NC(=O)c1snc(Cl)c1Cl [isotianil]
disease prevention [1]: Δ (the ratio of the area of leaves with no disease symptoms out of total area is 1.20 to 1.39 times than the ratio observed in untreated leaves.)

C=CCOC1=NS(=O)(=O)c2ccccc21 [probenazole]
disease prevention [1]: Δ (the ratio of the area of leaves with no disease symptoms out of total area is 1.20 to 1.39 times than the ratio observed in untreated leaves.)

OCC1=C[C@H](N[C@H]2C[C@H](CO)[C@@H](O[C@@H]3O[C@H](CO)[C@@H](O)[C@H](O)[C@H]3O)[C@H](O)[C@H]2O)[C@H](O)[C@@H](O)[C@@H]1O [Validamycin]
incidences of phytotoxic damage Week 1 ([6]; Week 1): 100% | incidences of phytotoxic damage Week 2 ([6]; Week 2): 100% | incidences of phytotoxic damage Week 3 ([6]; Week 3): 100% | incidences of phytotoxic damage Week 4 ([6]; Week 4): 100% | incidences of disease Week 1 ([7]; Week 1): 0% | incidences of disease Week 2 ([7]; Week 2): 0% | incidences of disease Week 3 ([7]; Week 3): 0% | incidences of disease Week 4 ([7]; Week 4): 67%

CC#Cc1cc(C)nc(Nc2ccccc2)n1 [mepanipyrim]
incidences of disease black point disease Week 1 ([8]; Week 1): 0% | incidences of disease black point disease Week 4 ([8]; Week 4): 15% | incidences of disease powdery mildew Week 1 ([9]; Week 1): 20.0% | incidences of disease powdery mildew Week 4 ([9]; Week 4): 30.0%

CSC(=O)c1cccc2nnsc12 [ASM, acibenzolar-S-methyl]
disease prevention [1]: ⊚ (the ratio of the area of leaves with no disease symptoms out of total area is 1.60 times or greater than the ratio observed in untreated leaves.)
